Source: patent publication US6455593B1, “Method of dynamic retardation of cell cycle kinetics to potentiate cell damage” (priority 1995, dated 2002)
Where two headings read alike, the source gives them in different places.

Columns and labels:
[1] = system: U937 cells; experiment: DNA gel electrophoresis for DNA fragmentation (apoptosis); assay type: cell-based, human
Experimental: Samples of the U937 cells were exposed to a series of concentrations of dThd for 24 hr. Their DNA was isolated by lysis of cell samples in TE buffer containing TRIS 10 mM, EDTA 10 mM, SDS 0.5% and proteinase K 200 μg/ml at […] for 2 h. The proteins were precipitated in a IM solution of NaCl and centrifuged at 2,500×g for 30 min at […] DNAse free RNase (25 μg/ml) was added to the supernatant and incubated for 30 min at 37° C. Spectrophotometric quantitation of the DNA in the supernatant was quantitated by absorbance spectrophotometry at 260 nm. Volumes adjusted to contain equal amounts of DNA were mixed with a loading buffer of 40% (w/v) sucrose, 0.1M EDTA pH 8.0, 0.5% (w/v) sodium lauryl sulphate and 0.05% (w/v) bromophenol blue. […] Separated bands of DNA were stained with ethidium bromide and photographed in UV light (Fotodyne Inc.). […] The lowest molecular weight (about 180 bp) was determined with a standard 123 bp ladder from Sigma Chemical Co. (Cat. #D5042). The result shown is a classical “DNA ladder,” characteristic of the fragmentation of DNA macromolecules in apoptosis. See Tomei, supra; Obeid, supra; Gold, supra.

[2] = system: human promonocytic lymphoma cells (U937); experiment: Microculture indicator system (MIS), MTT growth inhibition assay with bivariate serial dilutions; assay type: cell-based
In short: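 U937 human promonocytic lymphoma cells were tested in flat-bottom 96-well plates. Two agents were each diluted two-fold by serial mixing, then combined into bivariate dilution series before about 1×10^5 cells per well were added in RPMI 1640 with 10% Nurserum and antibiotics, 100 μl per well. Plates were incubated at 37° C. Thirty μl of 0.5% MTT was then added for 3 hr. Formazan was dissolved overnight with 120 μl of 10 % SDS/0.01 N HCl and absorbance was read at 570 nm against a cell-free blank.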

[3] = human subjects, oral doses; cited from earlier work
[4] = Homo sapiens, U-937, 4 h, U937, dThd […] 4 H, Cisplatin 0, read-out: MTT % inhibition, dThd only

Cc1cn([C@H]2C[C@H](O)[C@@H](CO)O2)c(=O)[nH]c1=O [dThd, deoxythymidine]
DNA fragmentation ([1]; 3 mM dThd, cell cycle arrest): pronounced DNA fragmentation | dThd concentration giving fragmentation of DNA ([1]; U937, 24 hr, FIG. 8): > 0.5 mM | inhibition at 10 µM ([2]; Homo sapiens, U-937, 4 h, U937, dThd 0.01 mM 4 H, no Cisplatin, read-out: MTT % inhibition, dThd only): 7% | inhibition at 10 µM ([2]; Homo sapiens, U-937, 4 h, U937, dThd 0.01 mM (column 8, lowest) 4 H, no Cisplatin, read-out: MTT % inhibition, dThd only): 4% | inhibition at 20 µM ([2]; Homo sapiens, U-937, 4 h, U937, dThd 0.02 mM 4 H, no Cisplatin, read-out: MTT % inhibition, dThd only): 12% | inhibition at 50 µM ([2]; Homo sapiens, U-937, 4 h, U937, dThd 0.05 mM 4 H, no Cisplatin, read-out: MTT % inhibition, dThd only): 19% | inhibition at 90 µM ([2]; Homo sapiens, U-937, 4 h, U937, dThd 0.09 mM 4 H, Cisplatin 0, read-out: MTT % inhibition, dThd only): 22% | inhibition at 3000 µM ([2]; Homo sapiens, U-937, 4 h, U937, dThd 3.00 mM 4 H, Cisplatin 0, read-out: MTT % inhibition, dThd only): 56% | inhibition at 190 µM [2, 4]: 29% | inhibition at 380 µM [2, 4]: 32% | inhibition at 760 µM [2, 4]: 40% | inhibition at 1500 µM [2, 4]: 48% | inhibition at 10 µM ([2]; Homo sapiens, U-937, U937, dThd 0.01 mM (c20) for 0 H (added with STSP), STSP for 18 H, total 18 H, STSP nM: 100,50,25,12.6,6.25,3.13, r28 dThd alone, read-out: Growth inhibition (MTT), dThd for 0 H, dThd 0.01 mM (ninth dilution)): 4% | inhibition at 10 µM ([2]; Homo sapiens, U-937, U937, dThd 0.01 mM (c20) for 4 H, STSP for 14 H, total 18 H, STSP nM: 100,50,25,12.5,6.25,3.125, r14 dThd alone, read-out: Growth inhibition (MTT), dThd 0.01 mM (ninth dilution)): -2% | inhibition at 10 µM ([2]; Homo sapiens, U-937, U937, dThd 0.01 mM (c22, last dilution) for 0 H (added with STSP), STSP for 18 H, total 18 H, STSP nM: 100,50,25,12.6,6.25,3.13, r28 dThd alone, read-out: Growth inhibition (MTT), dThd for 0 H, dThd 0.01 mM (tenth, last dilution)): 3% | inhibition at 10 µM ([2]; Homo sapiens, U-937, U937, dThd 0.01 mM (c22, last two-fold dilution) for 4 H, STSP for 14 H, total 18 H, STSP nM: 100,50,25,12.5,6.25,3.125, r14 dThd alone, read-out: Growth inhibition (MTT), dThd 0.01 mM (tenth, last dilution)): -7% | inhibition at 20 µM ([2]; Homo sapiens, U-937, U937, dThd 0.02 mM for 0 H (added with STSP), STSP for 18 H, total 18 H, STSP nM: 100,50,25,12.6,6.25,3.13, r28 dThd alone, read-out: Growth inhibition (MTT), dThd for 0 H, dThd 0.02 mM): 6% | inhibition at 20 µM ([2]; Homo sapiens, U-937, U937, dThd 0.02 mM for 4 H, STSP for 14 H, total 18 H, STSP nM: 100,50,25,12.5,6.25,3.125, r14 dThd alone, read-out: Growth inhibition (MTT), dThd 0.02 mM): 11% | inhibition at 50 µM ([2]; Homo sapiens, U-937, U937, dThd 0.05 mM for 4 H, STSP for 14 H, total 18 H, STSP nM: 100,50,25,12.5,6.25,3.125, r14 dThd alone, read-out: Growth inhibition (MTT), dThd 0.05 mM): 10% | inhibition at 60 µM ([2]; Homo sapiens, U-937, U937, dThd 0.06 mM for 0 H (added with STSP), STSP for 18 H, total 18 H, STSP nM: 100,50,25,12.6,6.25,3.13, r28 dThd alone, read-out: Growth inhibition (MTT), dThd for 0 H, dThd 0.06 mM): 10% | inhibition at 90 µM ([2]; Homo sapiens, U-937, U937, dThd 0.09 mM for 0 H (added with STSP), STSP for 18 H, total 18 H, STSP nM: 100,50,25,12.6,6.25,3.13, r28 dThd alone, read-out: Growth inhibition (MTT), dThd for 0 H, dThd 0.09 mM): 12% | inhibition at 90 µM ([2]; Homo sapiens, U-937, U937, dThd 0.09 mM for 4 H, STSP for 14 H, total 18 H, STSP nM: 100,50,25,12.5,6.25,3.125, r14 dThd alone, read-out: Growth inhibition (MTT), dThd 0.09 mM): 14% | inhibition at 3000 µM ([2]; Homo sapiens, U-937, U937, dThd 3.00 mM for 0 H (added with STSP), STSP for 18 H, total 18 H, STSP nM: 100,50,25,12.6,6.25,3.13, r28 dThd alone, read-out: Growth inhibition (MTT), dThd for 0 H, dThd 3.00 mM): 38% | inhibition at 3000 µM ([2]; Homo sapiens, U-937, U937, dThd 3.00 mM for 4 H, STSP for 14 H, total 18 H, STSP nM: 100,50,25,12.5,6.25,3.125, r14 dThd alone, read-out: Growth inhibition (MTT), dThd 3.00 mM): 50% | inhibition at 190 µM ([2]; Homo sapiens, U-937, read-out: Growth inhibition (MTT), dThd […], U937, dThd […] for 4 H, STSP for 14 H, total 18 H, STSP nM: 100,50,25,12.5,6.25,3.125, r14 dThd alone, read-out: Growth inhibition (MTT), dThd 0.19 mM): 18% | inhibition at 380 µM ([2]; Homo sapiens, U-937, read-out: Growth inhibition (MTT), dThd […], U937, dThd […] for 4 H, STSP for 14 H, total 18 H, STSP nM: 100,50,25,12.5,6.25,3.125, r14 dThd alone, read-out: Growth inhibition (MTT), dThd 0.38 mM): 23% | inhibition at 750 µM ([2]; Homo sapiens, U-937, read-out: Growth inhibition (MTT), dThd […], U937, dThd […] for 4 H, STSP for 14 H, total 18 H, STSP nM: 100,50,25,12.5,6.25,3.125, r14 dThd alone, read-out: Growth inhibition (MTT), dThd 0.75 mM): 34% | inhibition at 1500 µM ([2]; Homo sapiens, U-937, read-out: Growth inhibition (MTT), dThd […], U937, dThd […] for 4 H, STSP for 14 H, total 18 H, STSP nM: 100,50,25,12.5,6.25,3.125, r14 dThd alone, read-out: Growth inhibition (MTT), dThd 1.5 mM): 41% | inhibition at 190 µM ([2]; Homo sapiens, U-937, read-out: Growth inhibition (MTT), dThd for 0 H, dThd […], U937, dThd […] for 0 H (added with STSP), STSP for 18 H, total 18 H, STSP nM: 100,50,25,12.6,6.25,3.13, r28 dThd alone, read-out: Growth inhibition (MTT), dThd for 0 H, dThd 0.19 mM): 15% | inhibition at 380 µM ([2]; Homo sapiens, U-937, read-out: Growth inhibition (MTT), dThd for 0 H, dThd […], U937, dThd […] for 0 H (added with STSP), STSP for 18 H, total 18 H, STSP nM: 100,50,25,12.6,6.25,3.13, r28 dThd alone, read-out: Growth inhibition (MTT), dThd for 0 H, dThd 0.38 mM): 20% | inhibition at 760 µM ([2]; Homo sapiens, U-937, read-out: Growth inhibition (MTT), dThd for 0 H, dThd […], U937, dThd […] for 0 H (added with STSP), STSP for 18 H, total 18 H, STSP nM: 100,50,25,12.6,6.25,3.13, r28 dThd alone, read-out: Growth inhibition (MTT), dThd for 0 H, dThd 0.76 mM): 27% | inhibition at 1500 µM ([2]; Homo sapiens, U-937, read-out: Growth inhibition (MTT), dThd for 0 H, dThd […], U937, dThd […] for 0 H (added with STSP), STSP for 18 H, total 18 H, STSP nM: 100,50,25,12.6,6.25,3.13, r28 dThd alone, read-out: Growth inhibition (MTT), dThd for 0 H, dThd 1.50 mM): 33% | Enhancement of DEET-induced apoptosis as prospective RA ([2]; MTT tests, about 0.05 to 3 mM, preliminary results): no significant enhancement of the DEET-induced apoptosis | dThd concentration at maximum difference between the plots for O and S ([2]; O/S plots of dThd and STSP, FIG. 15, U937): approximately 0.1 mM | RA concentration for STSP potentiation relative to concentration causing cell cycle arrest ([2]; U937): at least one log lower | Combined results ratio (CRR), dThd for 0 H, dThd 0.02 mM ([2]; U937, dThd 0.02 mM for 0 H (added with STSP), STSP for 18 H, total 18 H, STSP nM: 100,50,25,12.6,6.25,3.13, r27 dThd alone): 1.0 | Combined results ratio (CRR), dThd 0.02 mM ([2]; U937, dThd 0.02 mM for 4 H, STSP for 14 H, total 18 H, STSP nM: 100,50,25,12.5,6.25,3.125, r13 dThd alone): 1.0 | Combined results ratio (CRR), dThd 0.05 mM ([2]; U937, dThd 0.05 mM for 4 H, STSP for 14 H, total 18 H, STSP nM: 100,50,25,12.5,6.25,3.125, r13 dThd alone): 1.0 | Combined results ratio (CRR), dThd for 0 H, dThd 0.06 mM ([2]; U937, dThd 0.06 mM for 0 H (added with STSP), STSP for 18 H, total 18 H, STSP nM: 100,50,25,12.6,6.25,3.13, r27 dThd alone): 1.0 | Combined results ratio (CRR), dThd for 0 H, dThd 0.09 mM ([2]; U937, dThd 0.09 mM for 0 H (added with STSP), STSP for 18 H, total 18 H, STSP nM: 100,50,25,12.6,6.25,3.13, r27 dThd alone): 1.0 | Combined results ratio (CRR), dThd 0.09 mM ([2]; U937, dThd 0.09 mM for 4 H, STSP for 14 H, total 18 H, STSP nM: 100,50,25,12.5,6.25,3.125, r13 dThd alone): 1.0 | Combined results ratio (CRR), dThd for 0 H, dThd 3.00 mM ([2]; U937, dThd 3.00 mM for 0 H (added with STSP), STSP for 18 H, total 18 H, STSP nM: 100,50,25,12.6,6.25,3.13, r27 dThd alone): 1.0 | Combined results ratio (CRR), dThd 3.00 mM ([2]; U937, dThd 3.00 mM for 4 H, STSP for 14 H, total 18 H, STSP nM: 100,50,25,12.5,6.25,3.125, r13 dThd alone): 1.0 | Combined results ratio (CRR), dThd for 0 H, dThd […] ([2]; U937, dThd […] for 0 H (added with STSP), STSP for 18 H, total 18 H, STSP nM: 100,50,25,12.6,6.25,3.13, r27 dThd alone): 1.0 | Combined results ratio (CRR), dThd […] ([2]; U937, dThd […] for 4 H, STSP for 14 H, total 18 H, STSP nM: 100,50,25,12.5,6.25,3.125, r13 dThd alone): 1.0 | combined results ratio, dThd only (baseline line) ([2]; U937, dThd alone, every dThd concentration 3.00-0.01 mM): 1.0 | Blood (plasma) levels achieved [3]: up to 6 mM
